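Compound exposure: 48 hours, 5 concentrations, 96-well plates. GI50 = concentration required for 50% inhibition of growth.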 Active and inactive are the calls of the source. No stated cut-off is given here; in the data, active = GI50 up to about 1.1 µM and inactive = higher.
Key:
Experiment in all cases: NCI-60 cell line screen, 48 h
[1] = tested on: KM12
[2] = tested on: HCT-116
[3] = tested on: SNB-19
[4] = tested on: SK-MEL-5
[5] = tested on: Malme-3M
[6] = tested on: UACC-257
[7] = tested on: K562
[8] = tested on: NCI/ADR-RES
[9] = tested on: NCI-H23
[10] = tested on: DU-145
[11] = tested on: Hs-578T
[12] = tested on: CAKI-1
[13] = tested on: M14
[14] = tested on: BT-549
[15] = tested on: SK-MEL-2
[16] = tested on: LOX IMVI
[17] = tested on: U-251
[18] = tested on: OVCAR-4
[19] = tested on: A498
[20] = tested on: HCC 2998

Compound | GI50 [1] | GI50 [2] | GI50 [3] | GI50 [4] | GI50 [5] | GI50 [6] | GI50 [7] | GI50 [8] | GI50 [9] | GI50 [10] | GI50 [11] | GI50 [12] | GI50 [13] | GI50 [14] | GI50 [15] | GI50 [16] | GI50 [17] | GI50 [18] | GI50 [19] | GI50 [20]
Cc1ccc(S(=O)(=O)NC(=O)Nc2cc(Cl)c(S(N)(=O)=O)cc2S(N)(=O)=O)cc1 | > 100 µM (inactive) | > 100 µM (inactive) | > 100 µM (inactive) | > 100 µM (inactive) | > 100 µM (inactive) | > 100 µM (inactive) | > 100 µM (inactive) | > 100 µM (inactive) | > 100 µM (inactive) | > 100 µM (inactive) | > 100 µM (inactive) | > 100 µM (inactive) | > 100 µM (inactive) | > 100 µM (inactive) | > 100 µM (inactive) | > 100 µM (inactive) | > 100 µM (inactive) | > 100 µM (inactive) | – | –
CCOC(=O)c1cc2c3c(c(C(C)=O)c(O)c2[nH]1)N(CC(C)CC)CC3 (centres undefined) | 56.4 µM (inactive) | 42.3 µM (inactive) | 92 µM (inactive) | – | 21.4 µM (inactive) | 68.7 µM (inactive) | 32.5 µM (inactive) | 29.6 µM (inactive) | 44.9 µM (inactive) | > 100 µM (inactive) | 8.97 µM (inactive) | 64.9 µM (inactive) | – | 45.5 µM (inactive) | > 100 µM (inactive) | 42.2 µM (inactive) | 78.2 µM (inactive) | 43.1 µM (inactive) | 80.9 µM (inactive) | –
CN1CCN2CCN(C)CCN(CC1)CC2 | > 100 µM (inactive) | > 100 µM (inactive) | > 100 µM (inactive) | > 100 µM (inactive) | – | > 100 µM (inactive) | > 100 µM (inactive) | > 100 µM (inactive) | > 100 µM (inactive) | > 100 µM (inactive) | > 100 µM (inactive) | > 100 µM (inactive) | > 100 µM (inactive) | > 100 µM (inactive) | > 100 µM (inactive) | > 100 µM (inactive) | > 100 µM (inactive) | > 100 µM (inactive) | > 100 µM (inactive) | –
CC(OC(=O)C(CC(=O)OC(C)(C)C)NC(=O)OC(C)(C)C)C(=O)OCc1ccccc1 (centres undefined) | > 100 µM (inactive) | > 100 µM (inactive) | > 100 µM (inactive) | – | > 100 µM (inactive) | > 100 µM (inactive) | > 100 µM (inactive) | > 100 µM (inactive) | > 100 µM (inactive) | > 100 µM (inactive) | > 100 µM (inactive) | > 100 µM (inactive) | > 100 µM (inactive) | > 100 µM (inactive) | > 100 µM (inactive) | > 100 µM (inactive) | > 100 µM (inactive) | > 100 µM (inactive) | – | > 100 µM (inactive)
O=C(O)C1(CC(CCCN2CCCCC2)c2ccccc2)CCCC1 (centres undefined) | > 100 µM (inactive) | > 100 µM (inactive) | > 100 µM (inactive) | > 100 µM (inactive) | > 100 µM (inactive) | – | > 100 µM (inactive) | > 100 µM (inactive) | > 100 µM (inactive) | > 100 µM (inactive) | > 100 µM (inactive) | > 100 µM (inactive) | > 100 µM (inactive) | – | > 100 µM (inactive) | > 100 µM (inactive) | > 100 µM (inactive) | > 100 µM (inactive) | > 100 µM (inactive) | > 100 µM (inactive)
CC(C)(C)OC(=O)NCC(c1c[nH]c2cc(Br)ccc12)c1c[nH]c2cc(Br)ccc12 | 18.3 µM (inactive) | 17 µM (inactive) | 21.8 µM (inactive) | 17.3 µM (inactive) | 17.2 µM (inactive) | 19.9 µM (inactive) | 40.1 µM (inactive) | 17.7 µM (inactive) | 18.2 µM (inactive) | 17.7 µM (inactive) | 19.8 µM (inactive) | 26.9 µM (inactive) | 18.7 µM (inactive) | 16.1 µM (inactive) | 18.4 µM (inactive) | 17.5 µM (inactive) | 17.3 µM (inactive) | 16.7 µM (inactive) | – | 18.9 µM (inactive)
Cc1nc2ccc(Cl)cc2c(Cl)c1CCCl | 30.8 µM (inactive) | 25.4 µM (inactive) | 45.4 µM (inactive) | 25.3 µM (inactive) | > 100 µM (inactive) | 74 µM (inactive) | 9.86 µM (inactive) | 33.5 µM (inactive) | 60.4 µM (inactive) | 43.7 µM (inactive) | 38.1 µM (inactive) | 54 µM (inactive) | 31 µM (inactive) | – | 29.6 µM (inactive) | 43.6 µM (inactive) | 45.9 µM (inactive) | – | 83 µM (inactive) | 30.7 µM (inactive)
Cc1cc(Cl)nc2nc(Cl)c(N)cc12 | 5.32 µM (inactive) | 2.48 µM (inactive) | 4.95 µM (inactive) | 10.9 µM (inactive) | 9.53 µM (inactive) | 1.87 µM (inactive) | 3.23 µM (inactive) | 14.8 µM (inactive) | 7.24 µM (inactive) | 7.03 µM (inactive) | 10.4 µM (inactive) | 0.354 µM (active) | 8.67 µM (inactive) | 14.6 µM (inactive) | 14.9 µM (inactive) | 1.91 µM (inactive) | 2.05 µM (inactive) | 2.64 µM (inactive) | – | 1.86 µM (inactive)
C[C@]12CC[C@H]3[C@@H](CCC4=C[C@@H](N5CCCC5)CC[C@@]43C)[C@@H]1C/C(=C\c1ccncc1)[C@@H]2O | 9.57 µM (inactive) | 7.91 µM (inactive) | 14.5 µM (inactive) | 12 µM (inactive) | 13.6 µM (inactive) | 6.19 µM (inactive) | 3.24 µM (inactive) | 17.6 µM (inactive) | 15.5 µM (inactive) | 15.9 µM (inactive) | 13.8 µM (inactive) | 28.8 µM (inactive) | 2.39 µM (inactive) | 18.3 µM (inactive) | 16.4 µM (inactive) | 8.57 µM (inactive) | 12.6 µM (inactive) | 18 µM (inactive) | – | 5.07 µM (inactive)
O=C1c2ccccc2C(=O)c2sc(Nc3cc(Cl)ccc3Cl)nc21 | 12.2 µM (inactive) | 3.3 µM (inactive) | 14.3 µM (inactive) | 1.53 µM (inactive) | 1.44 µM (inactive) | 2.51 µM (inactive) | 2.99 µM (inactive) | 2.63 µM (inactive) | 4.72 µM (inactive) | 8.57 µM (inactive) | 9.25 µM (inactive) | 5.02 µM (inactive) | 4.69 µM (inactive) | – | 11.4 µM (inactive) | 2.28 µM (inactive) | 6.56 µM (inactive) | 4.16 µM (inactive) | 21 µM (inactive) | 5.86 µM (inactive)
O=S(=O)(Nc1nccs1)c1ccc([As](=O)(O)O)cc1 | > 100 µM (inactive) | > 100 µM (inactive) | > 100 µM (inactive) | > 100 µM (inactive) | > 100 µM (inactive) | – | > 100 µM (inactive) | > 100 µM (inactive) | > 100 µM (inactive) | > 100 µM (inactive) | > 100 µM (inactive) | > 100 µM (inactive) | > 100 µM (inactive) | > 100 µM (inactive) | > 100 µM (inactive) | > 100 µM (inactive) | > 100 µM (inactive) | > 100 µM (inactive) | > 100 µM (inactive) | –
COc1ccc2c(c1)CC1C3(CCCCC23)CC[N+]1(C)C (centres undefined) | > 100 µM (inactive) | > 100 µM (inactive) | 73.5 µM (inactive) | > 100 µM (inactive) | > 100 µM (inactive) | > 100 µM (inactive) | 75.5 µM (inactive) | > 100 µM (inactive) | > 100 µM (inactive) | > 100 µM (inactive) | > 100 µM (inactive) | > 100 µM (inactive) | > 100 µM (inactive) | 24.9 µM (inactive) | > 100 µM (inactive) | > 100 µM (inactive) | 66.7 µM (inactive) | > 100 µM (inactive) | – | > 100 µM (inactive)
O=C(NCCC1([N+](=O)[O-])CCN(C(=O)c2ccccc2)CC1)c1ccccc1 | > 100 µM (inactive) | > 100 µM (inactive) | > 100 µM (inactive) | 37.2 µM (inactive) | 56.5 µM (inactive) | 24.7 µM (inactive) | > 100 µM (inactive) | > 100 µM (inactive) | > 100 µM (inactive) | > 100 µM (inactive) | > 100 µM (inactive) | 42.3 µM (inactive) | > 100 µM (inactive) | > 100 µM (inactive) | > 100 µM (inactive) | – | > 10 µM (inactive) | 52 µM (inactive) | > 100 µM (inactive) | –
CC1C2CC(CC2(C)O)C1(C)C (centres undefined) | > 100 µM (inactive) | > 100 µM (inactive) | > 100 µM (inactive) | > 100 µM (inactive) | > 100 µM (inactive) | > 100 µM (inactive) | > 100 µM (inactive) | – | > 100 µM (inactive) | > 100 µM (inactive) | > 100 µM (inactive) | > 100 µM (inactive) | > 100 µM (inactive) | > 100 µM (inactive) | – | – | > 100 µM (inactive) | > 100 µM (inactive) | > 100 µM (inactive) | > 100 µM (inactive)
CCCNC(=O)CCC(C)C1CCC2C3C(C[C@H](OC(C)=O)[C@]12C)[C@@]1(C)CCC2(C[C@H]1C[C@H]3OC(C)=O)OOC1(CC[C@]3(C)C4C[C@H](OC(C)=O)[C@]5(C)C(C(C)CCC(=O)NCCC)CCC5C4[C@H](OC(C)=O)C[C@@H]3C1)OO2 (some centres undefined) | > 100 µM (inactive) | > 100 µM (inactive) | > 100 µM (inactive) | 36.8 µM (inactive) | 34.6 µM (inactive) | 31 µM (inactive) | > 100 µM (inactive) | > 100 µM (inactive) | > 100 µM (inactive) | 53.2 µM (inactive) | 19 µM (inactive) | 46.5 µM (inactive) | 25.6 µM (inactive) | > 100 µM (inactive) | > 100 µM (inactive) | > 100 µM (inactive) | > 100 µM (inactive) | > 100 µM (inactive) | – | > 100 µM (inactive)
